Reference: article PMC7168933, “Design, Synthesis and Biochemical Evaluation of Novel Ethanoanthracenes and Related Compounds to Target Burkitt’s Lymphoma” (Pharmaceuticals, 2020)

Columns and labels:
[1] = test system: DG-75 Burkitt lymphoma cell line (EBV−, chemoresistant); conditions: 1 μM, 48 h
[2] = test system: MUTU-1 Burkitt's lymphoma cell line; assay: FITC Annexin V/PI FACS analysis of apoptosis in MUTU-I cells; format: cell-based; conditions: 24 h
Method: (§1) BL cells DG-75 and MUTU-1 (750,000) were treated with the specified concentration of the selected compound and incubated for 24 h (MUTU-1) or 48 h (DG-75) with taxol as the positive control. Samples were harvested by centrifugation and the pellets were rinsed with 0.5 mL of Ca^2+ Annexin V binding buffer (0.1 M HEPES, pH 7.4; 1.4 M NaCl; 25 mM CaCl2) each and pelleted again by centrifugation. Supernatants were decanted and the pellets were suspended again in 50 µL FITC Annexin V (diluted 1:33 in Ca^2+ Annexin V binding buffer), the samples were then placed on ice and incubated for 10 min in the dark. After the incubation period 0.5 mL of Ca^2+ Annexin V binding buffer was added and samples were pelleted by centrifugation. The supernatant was decanted and the pellet was suspended in PI solution (500 µL; 0.5 µg/mL). After 1 h, the samples were recorded using a CyAn ADP flow cytometer (Beckman Coulter Inc., Brea, CA, USA). 10,000 cells were analysed with the Flowjo software package. Taxol was used as a positive control for cell death.

[3] = test system: DG-75 Burkitt lymphoma cell line (EBV−, chemoresistant); assay: cells; conditions: Homo sapiens, DG-75, 48 h; for viability at 1 µM: read-out: DG-75 Cell Viability % 1 μM, 1 μM, 48 h; for viability at 10 µM: read-out: DG-75 Cell Viability % 10 μM, 10 μM, 48 h; for IC50: read-out: IC50 DG-75 48 h
DG-75 cells = assay: Effect of NAC antioxidant pre-treatment on viability of DG-75 cells (alamarBlue); format: cell-based; conditions: Homo sapiens, 1 µM compound, 48 h, no NAC, read-out: viable DG-75 cells without NAC
Method: Cell proliferation of DG-75 cells was determined with an alamarBlue assay (seeding density 2 × 10^4 cells/mL per well for 96-well plates), with vehicle control ethanol 1% (v/v). Cells were retained for 24 h and then pre-treated with NAC (5 mM) for 1 h, followed by compounds 15, 16b and 16c at 1 μM for 48 h. Cell viability was measured by alamarBlue assay (mean of three independent experiments).
N-Acetylcysteine (Sigma) was dissolved in sterile water (100 mM). Fresh solutions were prepared for each experiment. A 96 well plate was seeded with 2 × 10^4 cells/well for DG-75 cells. After 23 h, the DG-75 cells were then pre-treated with NAC (5 mM) for 1 h before compound treatment. The wells were then treated with the desired drug concentration (1 µM) for a predetermined time frame (48 h). After treatment and incubation, each well was treated with 20 µL of alamarBlue (37 °C) and the plate was incubated in the dark at 37 °C for 4–6 h. Fluorescence of the 96 well plates was then recorded at 590 nm (excitation 544 nm), as described for ‘alamarBlue viability assay’ (above). The percentage of viable cells remaining with NAC pre-treatment was compared to the percentage of viable cells remaining without NAC pre-treatment in order to determine the implication of ROS in the mechanism of cell death induced.

[4] = test system: DG-75 Burkitt's lymphoma cell line; assay: FITC Annexin V/PI FACS analysis of apoptosis in DG-75 cells; format: cell-based; conditions: 48 h
Method: as §1

[5] = test system: MUTU-1 Burkitt lymphoma cell line (EBV+); conditions: 1 μM, 24 h
[6] = Viability of peripheral blood mononuclear cells (alamarBlue); format: cell-based; conditions: human, peripheral blood mononuclear cells (PBMCs); for viability at 24 h, 0.5 µM: read-out: viable PBMCs at 0.5 µM; for viability at 24 h, 1 µM: read-out: viable PBMCs at 1 µM
Method: BL cells were seeded in a 96-well plate (1–5 × 10^4 cells per 200 µL in well). Cells were treated with the desired drug concentration for a predetermined time frame and incubated as required. alamarBlue (20 µL) was added to each well and the cells were incubated at 37 °C in the dark for 4 h. Plates were then recorded on a fluorescence plate reader (SpectraMax Gemini, Molecular Devices) at 544 nm (excitement) and 590 nm (emission). Experiments were performed in triplicate using controls of reagent, medium and vehicle (100% viability). Taxol (10 μM) was used as the control drug (90% cytotoxicity) for both cell lines. The experiments were performed in triplicate and the mean value for three independent experiments was calculated.
Blood was obtained from healthy donors (n = 2) after informed consent was received. The blood was then placed into a 50 mL falcon tube and diluted with phosphate-buffered saline (PBS), 1:2. The blood was separated into red blood cells, white blood cell ring and serum using LymphoPrep. The blood was slowly added to Ficoll pague plus (20 mL). The tubes containing the blood were then centrifuged for 30 min at 1700 g. Following transfer of the white blood cell ring to a new 50 mL tube, the volume was adjusted to 50 mL. The samples were again centrifuged for 10 min at 1700 g. The, supernatant liquid was removed; and this step was repeated. The resultant pellet was then resuspended in 10 mL of complete Iscove’s Modified Dulbecco’s (IMDM) media (10% FBS, 0.1% Ciprofloxacin (10 mg/mL)) for use in the cell viability experiments.

[7] = test system: MUTU-1 Burkitt lymphoma cell line (EBV+); assay: cells; conditions: Mutu-1, 24 h; for IC50: read-out: IC50 MUTU-I 24 h; for viability at 1 µM: read-out: MUTU-1 Cell Viability % 1 μM, 1 μM, 24 h; for viability at 10 µM: read-out: MUTU-1 Cell Viability % 10 μM, 10 μM, 24 h
MUTU-I cell line = assay: Lactate dehydrogenase (LDH) release cytotoxicity assay in MUTU-I cells; format: cell-based; conditions: percentage of total LDH release
Method: (§2) The CytoTox 96 non-radioactive cytotoxicity assay (Promega Corporation; 2800 Woods Hollow Road, Madison, WI, USA) was used to determine the cyctotoxicity of selected compounds. BL cells were incubated for 24 hr and then treated with the selected compounds (at 10 μM concentration) 15, 16b and 16c as in the cell viability assay. After 24 or 48 h as appropriate, the lysis solution (10X), (20 μL) was added. The cells were incubated for a further 1 h to ensure complete death. The supernatant (50 μL) was removed and transferred to a new 96-well plate. “Substrate mix″ (50 μL) was added and the plate was retained in the dark at RT for 30 min. “Stop solution″ (50 μL) was added to each well and the absorbance was recorded at 490 nm with a Dynatech MR5000 plate reader and the cell death was calculated.

DG-75 cell line = assay: Lactate dehydrogenase (LDH) release cytotoxicity assay in DG-75 cells; format: cell-based; conditions: percentage of total LDH release
Method: as §2

Row | Compound | DG-75 Cell Viability % 1 μM [1] | apoptosis in MUTU-I at 0.2 µM ([2]; 0.2 µM) | viability at 1 µM [3] | viability at 10 µM [3] | IC50 [3] | viability at 1 µM (DG-75 cells) | apoptosis in DG-75 at 10 µM ([4]; 10 µM) | MUTU-1 Cell Viability % 1 μM [5] | viability at 24 h, 0.5 µM [6] | viability at 24 h, 1 µM [6] | IC50 [7] | viability at 1 µM [7] | viability at 10 µM [7] | LDH release (cytotoxicity) in MUTU-I at 1 µM (MUTU-I cell line; 1 µM) | LDH release (cytotoxicity) in MUTU-I at 10 µM (MUTU-I cell line; 10 µM) | apoptosis in MUTU-I at all concentrations ([2]; all concentrations (0.2–10 µM)) | apoptosis in DG-75 at 1 µM [4] | LDH release (cytotoxicity) in DG-75 at 10 µM (DG-75 cell line) | apoptosis in MUTU-I at 0.5 µM ([2]; 0.5 µM)
1 | O=C1C2C3c4ccccc4C(/C=C/[N+](=O)[O-])(c4ccccc43)C2C(=O)N1CCCCCCN1C(=O)C2C3c4ccccc4C(/C=C/[N+](=O)[O-])(c4ccccc43)C2C1=O (stereo not drawn) [Compound 15, 13,13′-(Hexane-1,6-diyl)bis(9-((E)-2-nitrovinyl)-9,10-dihydro-9,10[3,4]epipyrroloanthracene-12,14-dione)] | 3.8% | > 90% | < 5% | 0% | 240 nM | 6 to 23% | 95% | 4.5% | ~99% | 72 to 81% | 90 nM | < 5% | 2.1% |  |  |  |  |  | 
2 | O=C1C2C3c4ccccc4C(C=C[N+](=O)[O-])(c4ccccc43)C2C(=O)N1c1ccc(Cl)cc1 (stereo not drawn) [Compound 16b, (E)-13-(4-Chlorophenyl)-9-(2-nitrovinyl)-9,10-dihydro-9,10-[3,4]epipyrroloanthracene-12,14-dione] | 5.5% |  | < 6% | 0.52% | 450 nM | 6 to 23% |  |  | ~99% | 72 to 81% | 170 nM | 5% | 0.38% | 5% | 2% | over 80% | 61% |  | 
3 | COc1ccc(N2C(=O)C3C4c5ccccc5C(/C=C/[N+](=O)[O-])(c5ccccc54)C3C2=O)cc1 (stereo not drawn) [Compound 16c, (E)-13-(4-Methoxyphenyl)-9-(2-nitrovinyl)-9,10-dihydro-9,10-[3,4]epipyrroloanthracene-12,14-dione] |  |  | 28.4% | 2.1% | 560 nM | 6 to 23% |  |  | ~99% | 72 to 81% | 200 nM | 0.19% | 1.1% |  |  |  | 29% | 25% | > 90%
